ChEMBL document CHEMBL1151740, “Structurally constrained hybrid derivatives containing octahydrobenzo[g or f]quinoline moieties for dopamine D2 and D3 receptors: binding characterization at D2/D3 receptors and elucidation of a pharmacophore model” (J Med Chem, 2008)

Key:
[1] = molecular target: D(3) dopamine receptor (Rattus norvegicus, UniProt P19020); test: Displacement of [3H]Spiperone from rat dopamine D3 receptor expressed in HEK293 cells; format: cell-based
[2] = molecular target: D(2) dopamine receptor (Rattus norvegicus, UniProt P61169); test: Displacement of [3H]Spiperone from rat dopamine D2L receptor expressed in HEK293 cells; format: cell-based
Sequence of D(2) dopamine receptor (P61169 whole entry): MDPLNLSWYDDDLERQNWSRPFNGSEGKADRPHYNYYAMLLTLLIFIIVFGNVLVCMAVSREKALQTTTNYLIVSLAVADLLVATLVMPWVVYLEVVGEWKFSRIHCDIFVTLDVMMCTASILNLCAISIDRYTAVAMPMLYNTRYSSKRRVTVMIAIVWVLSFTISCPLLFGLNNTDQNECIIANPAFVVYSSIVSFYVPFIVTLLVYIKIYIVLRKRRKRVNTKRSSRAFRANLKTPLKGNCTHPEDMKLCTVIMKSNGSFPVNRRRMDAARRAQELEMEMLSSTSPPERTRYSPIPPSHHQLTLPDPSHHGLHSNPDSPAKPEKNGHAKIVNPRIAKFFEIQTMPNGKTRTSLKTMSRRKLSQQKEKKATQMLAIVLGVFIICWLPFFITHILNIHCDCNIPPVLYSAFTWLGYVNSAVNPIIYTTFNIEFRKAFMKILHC

Sequence of D(3) dopamine receptor (P19020 whole entry): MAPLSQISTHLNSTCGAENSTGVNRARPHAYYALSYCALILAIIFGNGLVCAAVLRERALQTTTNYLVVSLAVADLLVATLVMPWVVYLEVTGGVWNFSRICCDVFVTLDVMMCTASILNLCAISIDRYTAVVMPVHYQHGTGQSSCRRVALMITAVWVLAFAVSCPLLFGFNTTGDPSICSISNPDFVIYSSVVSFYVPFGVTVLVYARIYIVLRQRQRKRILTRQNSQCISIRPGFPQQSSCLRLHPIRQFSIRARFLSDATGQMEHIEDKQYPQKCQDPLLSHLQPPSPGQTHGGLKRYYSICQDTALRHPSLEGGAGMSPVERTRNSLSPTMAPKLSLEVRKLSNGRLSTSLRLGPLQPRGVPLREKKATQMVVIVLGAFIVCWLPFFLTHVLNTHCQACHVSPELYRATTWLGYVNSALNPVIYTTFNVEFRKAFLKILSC

SMILES | Ki [1] [nM] | Ki [2] [nM]
Oc1cccc2c1CC[C@H]1[C@H]2CCCN1CCN1CCN(c2ccccc2)CC1 | 4.95 | 23.6
CCCN(CCN1CCN(c2ccc(-c3ccccc3)cc2)CC1)[C@H]1CCc2nc(N)sc2C1 | 0.925 | 234
CCCN1CCC[C@H]2c3cccc(O)c3CC[C@@H]21 (relative stereo) | 96 | 347
CCCN(CCN1CCN(c2ccccc2)CC1)[C@@H]1CCc2nc(N)sc2C1 | 44 | 1980
Oc1cccc2c1CC[C@@H]1[C@@H]2CCCN1CCN1CCN(c2ccccc2)CC1 | 89.3 | 835
CCCN1CCC[C@@H]2Cc3c(O)cccc3C[C@H]21 (racemic) | 395 | 2780
CCCN(CCN1CCN(c2ccccc2)CC1)[C@H]1CCc2nc(N)sc2C1 | 4.15 | 243

Results, then the molecule that gave them:

Ki [1] [nM] | Ki [2] [nM] | SMILES
72.2 | 219 | Oc1ccc2c(c1)[C@@H]1CCCN(CCN3CCN(c4ccccc4)CC3)[C@H]1CC2
256 | 338 | Oc1ccc2c(c1)C[C@H]1[C@@H](CCCN1CCN1CCN(c3cccc(Cl)c3Cl)CC1)C2 (racemic)
102 | 289 | Oc1ccc2c(c1)C[C@H]1[C@@H](CCCN1CCCCN1CCN(c3ccccc3)CC1)C2 (racemic)
187 | 148 | Oc1ccc2c(c1)C[C@@H]1[C@@H](CCCN1CCN1CCN(c3cccc(Cl)c3Cl)CC1)C2 (racemic)
168 | 136 | Oc1cccc2c1C[C@@H]1CCCN(CCN3CCN(c4cccc(Cl)c4Cl)CC3)[C@H]1C2 (racemic)
38.6 | 809 | CCCN(CCN1CCN(c2ccccc2)CC1)[C@H]1CCc2ccc(O)cc2C1
473 | 2520 | Oc1ccc2c(c1)C[C@H]1[C@@H](CCCN1CCN1CCN(c3ccccc3)CC1)C2 (racemic)
736 | 1710 | Oc1cccc2c1C[C@@H]1CCCN(CCN3CCN(c4ccccc4)CC3)[C@H]1C2 (racemic)
